This is an account of results in patent US8637549B2, “Pyridons as PDK1 inhibitors” (Boehringer Ingelheim International GmbH, priority 2008, dated 2014).

In experiment [1] the target is T1, ΔPH-PDK1 (shortened PDK1 enzyme aa 51-359; Q66A mutation) (Homo sapiens, UniProt O15530, Q66A).
T1 construct: a shortened PDK1 enzyme (aa 51-359; Q66A mutation) is used; His6 (N, cleaved yes); made in house
T1 sequence (O15530 51-359 Q66A): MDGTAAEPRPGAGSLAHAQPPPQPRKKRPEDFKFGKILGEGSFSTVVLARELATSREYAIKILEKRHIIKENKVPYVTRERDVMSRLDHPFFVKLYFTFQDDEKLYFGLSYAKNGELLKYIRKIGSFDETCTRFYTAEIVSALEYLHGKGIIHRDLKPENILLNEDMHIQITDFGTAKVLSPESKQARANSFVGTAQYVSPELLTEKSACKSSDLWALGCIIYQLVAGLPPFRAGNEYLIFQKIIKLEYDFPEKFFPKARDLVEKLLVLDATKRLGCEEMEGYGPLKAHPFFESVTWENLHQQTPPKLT
Briefly: PDK1 kinase assay II. In kind it is biochemical. Conditions: 10 μM compound, residual enzyme activity relative to DMSO control, values marked with asterisk (*). The procedure:
Another assay was developed in which a shortened PDK1 enzyme (aa 51-359; Q66A mutation) is used that carries in the N-terminal position a His6 tag that is cleaved during purification. (ΔPH-PDK1). […]
The reaction is started by adding the ATP solution and the mixture is incubated for 120 min at ambient temperature; at the start of the reaction the dishes are shaken gently. […] Then the plate is stuck down with sealing tape, 25 μL/well of scintillation solution (Microscint 0; Messrs. Perkin Elmer; No. 6013611) are added and the amount of P33 precipitated is measured using the Wallac Betacounter. The measured data are evaluated using Graphpad Prism software.
(§1) The % CTL values indicate the residual activity of the enzyme after the addition of the inhibitory compound in the solvent DMSO in relation to the enzyme activity in the solvent DMSO without the addition of a compound (control). The majority of the values were determined using the PDK1 kinase assay III described hereinbefore. The values marked with an asterisk (*) were determined using the PDK1 kinase assay II described hereinbefore.

Another experiment has as its target T2, His6-PDK1 (aa 52-556) (Homo sapiens, UniProt O15530).
T2 construct: 15 μL His6-PDK1 (aa 52-556) 3.33 ng/well) and PDKtide; host or cells: baculovirus-infected insect cells
T2 sequence (O15530 52-556): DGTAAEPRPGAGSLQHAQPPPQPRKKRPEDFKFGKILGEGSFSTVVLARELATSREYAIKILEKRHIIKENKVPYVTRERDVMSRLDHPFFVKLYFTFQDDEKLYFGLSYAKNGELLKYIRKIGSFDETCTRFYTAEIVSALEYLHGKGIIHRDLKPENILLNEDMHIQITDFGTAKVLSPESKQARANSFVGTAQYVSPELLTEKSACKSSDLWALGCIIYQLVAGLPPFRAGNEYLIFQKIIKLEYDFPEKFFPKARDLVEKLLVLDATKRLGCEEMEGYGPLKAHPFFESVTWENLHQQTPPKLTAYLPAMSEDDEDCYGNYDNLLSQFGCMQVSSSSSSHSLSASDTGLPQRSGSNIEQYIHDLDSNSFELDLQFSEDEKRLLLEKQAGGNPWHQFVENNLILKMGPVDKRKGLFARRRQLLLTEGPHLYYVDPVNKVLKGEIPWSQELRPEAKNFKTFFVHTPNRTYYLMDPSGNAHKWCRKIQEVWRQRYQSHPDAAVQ
Briefly: PDK1 kinase assay III (with Tween 20). Conditions: 10 μM compound, residual enzyme activity relative to DMSO control, unmarked values, read-out: % CTL. In kind it is biochemical. Here is the method: Another PDK1 assay was developed which by comparison with PDK1 assay 1 additionally contains Tween 20:
The following components are combined in a well of a 96-well round-based dish (Messrs. Greiner bio-one, No. 650101): • 15 μL of compound to be tested in varying concentrations (e.g. Starting at 10 μM, and diluted in steps of 1:5) in APT buffer (50 mM tris/C1 pH7.5; 0.05% β-mercaptoethanol; 10 mM Mg-acetate; 0.0166% Tween 20; 3.33% DMSO) • 15 μL His6-PDK1 (aa 52-556) 3.33 ng/well) and PDKtide (KTFCGTPEYLAPEVRRE […]), synthesised by Pepceuticals Limited, Nottingham, United Kingdom; 25 μM final concentration); His6-PDK1 and PDKtide are together diluted accordingly in assay buffer (50 mM tris pH 7.5, 0.05% β-mercaptoethanol, 10 mM Mg-acetate); PDKtide is present in this mixture as an 83.3 μM solution. These 30 μL are routinely incubated for 30 min at RT. • 20 μL ATP solution (25 μM ATP with 1.0 μCi/well gamma-P33-ATP). The final concentration of Tween 20 is 0.005%.
The reaction is started by adding the ATP solution and the mixture is incubated for 90 min at ambient temperature; at the start of the reaction the dishes are shaken gently. The reaction is stopped by the addition of 50 μL/well of 500 mM phosphoric acid (H3PO4) and incubated for about 20 min at ambient temperature. The precipitate is transferred by harvesting onto filter plates (96-well microtitre filter plate: UniFilter GF/C; Messrs Perkin Elmer; No. 6005174), then washed 6 times with 50 mM H3PO4 and dried at 60° C. Then the plate is stuck down with sealing tape, 25 μL/well of scintillation solution (Microscint 0; Messrs. Perkin Elmer; No. 6013611) are added and the amount of P33 precipitated is measured using the Wallac Betacounter. The measured data are evaluated using Graphpad Prism software.
as §1

Molecules are shown by their SMILES. Marks after values point to notes of the source that are not given here.

Regarding `CN1CCC(N(C)c2ccc(Nc3ncc4cc(C#CCNC(=O)c5cccn(Cc6ccc(C(F)(F)F)nc6)c5=O)ccc4n3)cc2)CC1` [II-8, N-{3-[2-({4-[methyl(1-methylpiperidin-4-yl)amino]phenyl}amino)quinazolin-6-yl]prop-2-yn-1-yl}-2-oxo-1-{[6-(trifluoromethyl)pyridin-3-yl]methyl}-1,2-dihydropyridine-3-carboxamide], the “% CTL” value in experiment [1] was 47.0* %.
Turning to `CN1CCC(Nc2ccc(Nc3ncc4cc(C#CCNC(=O)c5cccn(Cc6ccc(C(F)(F)F)nc6)c5=O)ccc4n3)cc2F)CC1` [II-7, N-{3-[2-({3-fluoro-4-[(1-methylpiperidin-4-yl)amino]phenyl}amino)quinazolin-6-yl]prop-2-yn-1-yl}-2-oxo-1-{[6-(trifluoromethyl)pyridin-3-yl]methyl}-1,2-dihydropyridine-3-carboxamide], on His6-PDK1 (aa 52-556), the remaining activity at 10 µM was found to be 18.6%.
On to `O=C1Nc2cc(/C=C/CNC(=O)c3cccn(Cc4ccc(Cl)nc4)c3=O)ccc2/C1=C/c1cnc[nH]1` [I-1, 1-[(6-chloropyridin-3-yl)methyl]-N-{(2E)-3-[(3Z)-3-(1H-imidazol-5-ylmethylidene)-2-oxo-2,3-dihydro-1H-indol-6-yl]prop-2-en-1-yl}-2-oxo-1,2-dihydropyridine-3-carboxamide], for which the remaining activity at 10 µM on His6-PDK1 (aa 52-556) amounted to 16.8%.
Regarding `CN(C)Cc1ccc(Nc2ncc3cc(/C=C/CNC(=O)c4cccn(Cc5cccnc5)c4=O)ccc3n2)cc1` [III-12, N-{(2E)-3-[2-({4-[(dimethylamino)methyl]phenyl}amino)quinazolin-6-yl]prop-2-en-1-yl}-2-oxo-1-(pyridin-3-ylmethyl)-1,2-dihydropyridine-3-carboxamide], the remaining activity at 10 µM on His6-PDK1 (aa 52-556) is 18.3%.
Consider `CN(C)Cc1ccc(Nc2ncc3cc(C#CCNC(=O)c4cccn(Cc5cccnc5)c4=O)ccc3n2)cc1` [II-5, N-{3-[2-({4-[(dimethylamino)methyl]phenyl}amino)quinazolin-6-yl]prop-2-yn-1-yl}-2-oxo-1-(pyridin-3-ylmethyl)-1,2-dihydropyridine-3-carboxamide], for which the “% CTL” value in experiment [1] is 15.6* %.
